In ChEMBL document CHEMBL1667860, “Acridone alkaloids as potent inhibitors of cathepsin V” (Bioorg Med Chem, 2011):

Legend:
Cathepsin L2 [1] = target: T1, Cathepsin L2 (Homo sapiens, UniProt O60911); test: Inhibition of human recombinant cathepsin V expressed in Pichia pastoris
T1 sequence (O60911 whole entry): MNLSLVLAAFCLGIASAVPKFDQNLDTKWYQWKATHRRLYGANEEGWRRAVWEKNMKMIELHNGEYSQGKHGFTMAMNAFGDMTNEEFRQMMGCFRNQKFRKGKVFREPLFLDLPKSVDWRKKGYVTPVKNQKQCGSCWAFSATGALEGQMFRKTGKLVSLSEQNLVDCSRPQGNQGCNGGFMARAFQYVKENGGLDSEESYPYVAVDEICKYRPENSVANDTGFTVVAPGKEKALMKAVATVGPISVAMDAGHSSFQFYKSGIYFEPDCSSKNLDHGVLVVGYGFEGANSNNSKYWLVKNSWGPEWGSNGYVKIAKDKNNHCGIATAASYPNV

Cathepsin L2 [2] = target: T1, Cathepsin L2; test: Inhibition of human recombinant cathepsin V expressed in Pichia pastoris by Lineweaver-Burk double-reciprocal plots

| Structure (SMILES) | IC50 (Cathepsin L2 [1]) | Ki (Cathepsin L2 [2]) |
| --- | --- | --- |
| COc1c(O)c(CC=C(C)C)c(O)c2c(=O)c3c(CC=C(C)C)ccc(O)c3n(C)c12 | 2.5 µM | 0.5 µM |
| COc1c2c(c(O)c3c(=O)c4cccc(O)c4n(C)c13)CC(C(C)(C)O)O2 (stereo not given) | 5.2 µM | 4.4 µM |
| COc1c(O)c2c(c3c(=O)c4cccc(O)c4n(C)c13)OC(C)(C)C(O)C2 (stereo not given) | 2.8 µM | 1.7 µM |
| Cn1c2c(O)cccc2c(=O)c2c(O)cc3c(c21)C=CC(C)(C)O3 | 48 µM |  |
| CC(C)=CCc1c(O)cc2c(c1O)c(=O)c1c(CC=C(C)C)ccc(O)c1n2C | 3.9 µM | 1.2 µM |

Now from value to compound:

| IC50 (Cathepsin L2 [1]) | Ki (Cathepsin L2 [2]) | Structure (SMILES) |
| --- | --- | --- |
| 1.2 µM | 0.2 µM | COc1c(OC)c(OC)c2c(c1O)c(=O)c1cccc(O)c1n2C [CITIBRASINE] |
| 10 µM | 4.2 µM | COc1c(O)cc(O)c2c(=O)c3cccc(O)c3n(C)c12 [CITRUSININE-II] |
| 2.2 µM | 1 µM | COc1cc(O)c2c(=O)c3cccc(O)c3n(C)c2c1OC [CITRUSININE-I] |
| 2.2 µM | 1.1 µM | COc1c(O)c(CC=C(C)C)c(O)c2c(=O)c3cccc(O)c3n(C)c12 [GLYCOCITRINE-IV] |
| 25 µM | 10 µM | CC(C)=CCc1c(O)cc(O)c2c(=O)c3cccc(O)c3n(C)c12 [GLYCOCITRINE-I] |
| 44 µM |  | COc1c2c(c(O)c3c(=O)c4cccc(O)c4n(C)c13)C=CC(C)(C)O2 [PYRANOFOLINE] |
